“And” between values parts separate entries of the source, which are not always exact repeats. Identical values can stand only once. Like-named read-outs stand apart in the source and are kept apart here.
Assays:
[1] = Oil water partition coefficients (octanol/water, HPLC); assay type: physicochemical; conditions: 1:1 octanol/water, shaken 12 hours, HPLC
Method: Partition coefficients were determined by dissolving the compound in a 1:1 mixture of octanol/water and shaking the solution for 12 hours. HPLC was used to determine the partition coefficient. The reported values are the log of the octanol/water partition

[2] = tested on: E. coli (GM 7359) alkA tag E. coli mutant; conditions: 60 minutes
Method: (§2) Bacteria were inoculated and cultured in nutrient agar for eighteen hours, using a shaking incubator at 140 r.p.m and 35° C. Medium contained 10 mM HEPES buffer at pH 7. Cells were centrifuged twice in Sorval RC-5 centrifuge 12,000 r.pm.×15 minutes at 4° C. and washed twice in 10 uM HEPES buffer. The resuspended cells were counted using a Hemocrit and diluted to a level of 5×10^1 cells per ml in 10 μM HEPES. The cells, the following toxins; methyl viologen (paraquat), methyl viologen (MPP^+), rotenone, daizoxide, streptozotocin and alloxan, and antidotes were added, reaching final volumes of 1 ml in Eppendorf tubes and placed on a rotator at room temperature. 10 μM diethylenetriaminepentaacetic acid was added to the samples to terminate the reactions at the specified times of either twenty or sixty minutes. 300 μL of cells were plated on Petri plates containing nutrient agar and incubated at 35° C. overnight. Colonies were counted after 20 hours. Percentage survival as compared with culture controls is calculated from the means of triplicates in each experimental group.

M. Luteus (ATCC 499732) = test: Bacterial survival, toxin diazoxide and antidotes
Method: as §2

S. aureus (ATCC 29213) [3] = test: Bacterial survival, toxin MPP^+ and antidotes; conditions: 60 minutes
Method: as §2

[4] = tested on: E. coli (GM 7359) alkA tag E. coli mutant; conditions: 60 minutes; remark: listed apart in the source
Method: as §2

[5] = tested on: E. coli (GM 7359) alkA tag E. coli mutant; test: Bacterial survival, toxin streptozotocin and antidotes; conditions: 60 minutes
Method: as §2

[6] = pKa by potentiometric titration; assay type: physicochemical; conditions: aqueous solution, ionic strength 0.10, 25° C.
Method: PKa's were determined by standard potentiometric titration methods in aqueous solution with an ionic strength of 0.10 at 25° C. Values are reported as log K values of the equilibrium constant.

S. aureus (ATCC 29213) [7] = test: Bacterial survival, toxin diazoxide and antidotes; assay type: cell-based; conditions: 60 minutes
Method: (§1) Medium contained 10 mM HEPES buffer at pH 7. […] Colonies were counted after 20 hours.

E. coli (ATCC 35150) = assay type: cell-based
Method: as §1

[8] = 0.2 mM Diazoxide + 12.5 uM antidote, T60
[9] = 0.2 mM Diazoxide + 50 uM antidote, T20
[10] = 0.2 mM Diazoxide + 100 uM antidote, T60
[11] = substance alone 100 uM, T20 (20 minutes)
[12] = substance alone 100 uM, T60 (60 minutes)
[13] = 100 uM Rotenone + 2.5 uM antidote
[14] = 100 uM Rotenone + 5 uM antidote
[15] = 100 uM Streptozotocin + 5 uM antidote
[16] = 0.2 mM Diazoxide + 200 uM antidote, T60
[17] = substance alone 200 uM, T20 (20 minutes)
[18] = substance alone 200 uM, T60 (60 minutes)
[19] = 0.2 mM Diazoxide + 1 uM antidote, T20
[20] = 0.2 mM Diazoxide + 1 uM antidote, T60
[21] = 0.2 mM Diazoxide + 2.5 uM antidote, T20
[22] = 0.2 mM Diazoxide + 2.5 uM antidote, T60
[23] = 0.15 mM Diazoxide + 5 uM antidote
[24] = 0.2 mM Diazoxide + 5 uM antidote, T60
[25] = 0.2 mM Diazoxide + 10 uM antidote, T60

Compound: 1,4,8,11-tetraaza-1,4,8,11-tetra(2-piperidylethyl)cyclotetradecane [cyclam-piperidine]
- Log Partition Coefficient Octanol:Water [1]: 0.7

Compound: 1,4,8,11-tetraaza-1,4,8,11-tetrabicyclo[3.3.1]non-3-ylcyclotetradecane [Cyclam Adamantane]
- Mean % Survival ([2]; 2 mM Alloxan + 2.5 uM antidote): 100%
- Mean % Survival ([2]; 2 mM Alloxan + 10 uM antidote): 100%
- Mean % Survival ([2]; substance alone 10 uM): 100%
- Mean % Survival (M. Luteus (ATCC 499732); 0.2 mM Diazoxide + 12.5 uM antidote, T20): 100%
- Mean % Survival (M. Luteus (ATCC 499732); [8]): 100%
- Mean % Survival (M. Luteus (ATCC 499732); [9]): 100%
- Mean % Survival (M. Luteus (ATCC 499732); 0.2 mM Diazoxide + 100 uM antidote, T20): 100%
- Mean % Survival (M. Luteus (ATCC 499732); [10]): 100%
- Mean % Survival (M. Luteus (ATCC 499732); [11]): 100%
- Mean % Survival (M. Luteus (ATCC 499732); [12]): 100%
- Mean % Survival (S. aureus (ATCC 29213) [3]; 0.2 mM MPP^+ + 1 uM antidote): 100%
- Mean % Survival (S. aureus (ATCC 29213) [3]; 0.2 mM MPP^+ + 2.5 uM antidote): 100%
- Mean % Survival (S. aureus (ATCC 29213) [3]; 0.2 mM MPP^+ + 5.0 uM antidote): 100%
- Mean % Survival (S. aureus (ATCC 29213) [3]; 0.2 mM MPP^+ + 7.5 uM antidote): 100%
- Mean % Survival (S. aureus (ATCC 29213) [3]; substance alone 30 uM): 100%
- Mean % Survival [4, 13]: 97%
- Mean % Survival [4, 14]: 89%
- Mean % Survival ([4]; 100 uM Rotenone + 12.5 uM antidote): 100%
- Mean % Survival ([4]; substance alone 25 uM): 100%
- Mean % Survival ([5]; 100 uM Streptozotocin + 1 uM antidote): 93%
- Mean % Survival [5, 15]: 100%
- Mean % Survival ([5]; 100 uM Streptozotocin + 12.5 uM antidote): 100%
- Mean % Survival ([5]; substance alone 12.5 uM): 100%

Compound: CNCCNCCCNCCNC [2,3,2-methylated on N1/N4, N,N′″-dimethyl 2,3,2-tetramine]
- Log Partition Coefficient Octanol:Water [1]: 0.4

Compound: NCCSCCCSCCN [2,3,2-sulfur, 2-[3-(2-aminoethylthio)propylthio]ethylamine]
- Mean % Survival (M. Luteus (ATCC 499732); [8]): 32%
- Mean % Survival (M. Luteus (ATCC 499732); [10]): 67%
- Mean % Survival (M. Luteus (ATCC 499732); [11]): 100%
- Mean % Survival (M. Luteus (ATCC 499732); [12]): 100%

Compound: CNCCN(C)CCCN(C)CCNC [2,3,2-tetramethyl, N,N′,N″,N′″-tetramethyl 2,3,2-tetramine]
- pKa(1) [6]: 10.2
- pKa(2) [6]: 9.4
- pKa(3) [6]: 6.1
- pKa(4) [6]: 2.9

Compound: O=C1NC(=O)C(=O)C(=O)N1 [Alloxan, reference compound]
- Mean % Survival ([2]; substance alone 2 mM): 20%

Compound: CC1=NS(=O)(=O)c2cc(Cl)ccc2N1 [Diazoxide, reference compound]
- Mean % Survival (M. Luteus (ATCC 499732); substance alone 0.2 mM, T20 (20 minutes)): 22%
- Mean % Survival (M. Luteus (ATCC 499732); substance alone 0.2 mM, T60 (60 minutes)): 1%
- Mean % Survival (S. aureus (ATCC 29213) [7]; substance alone 0.15 mM): 25%

Compound: N[C@@H](Cc1c[nH]cn1)C(=O)O [Histidine, reference compound]
- Mean % Survival (M. Luteus (ATCC 499732); [16]): 54%
- Mean % Survival (M. Luteus (ATCC 499732); [17]): 100%
- Mean % Survival (M. Luteus (ATCC 499732); [18]): 100%
- Mean % Survival (S. aureus (ATCC 29213) [3]; 0.15 mM MPP^+ + 0.5 mM antidote): 64%
- Mean % Survival (S. aureus (ATCC 29213) [3]; substance alone 0.5 mM): 90%
- Mean % Survival (S. aureus (ATCC 29213) [7]; 0.15 mM Diazoxide + 500 uM antidote): 58%
- Mean % Survival (S. aureus (ATCC 29213) [7]; substance alone 0.5 mM): 100%
- Mean % Survival (E. coli (ATCC 35150)): 30%
- Mean % Survival (E. coli (ATCC 35150); 0.5 mM Paraquat + 1.0 mM antidote, 60 minutes): 37%
- Mean % Survival (E. coli (ATCC 35150); substance alone 0.5 mM, 60 minutes): 100%
- Mean % Survival (E. coli (ATCC 35150); substance alone 1 mM, 60 minutes): 100%

Compound: C[n+]1ccc(-c2ccccc2)cc1 [MPP^+, reference compound]
- Mean % Survival (S. aureus (ATCC 29213) [3]; substance alone 0.1 mM): 31%
- Mean % Survival (S. aureus (ATCC 29213) [3]; substance alone 0.15 mM): 15%
- Mean % Survival (S. aureus (ATCC 29213) [3]; substance alone 0.2 mM): 6%
- Mean % Survival (S. aureus (ATCC 29213) [3]; substance alone 0.25 mM): 3%

Compound: C=C(C)[C@H]1Cc2c(ccc3c2O[C@@H]2COc4cc(OC)c(OC)cc4[C@@H]2C3=O)O1 [Rotenone, reference compound]
- Mean % Survival ([4]; substance alone 100 uM): 60%

Compound: NCCCCNCCCN [Spermidine, reference compound]
- Mean % Survival (M. Luteus (ATCC 499732); [19]): 100%
- Mean % Survival (M. Luteus (ATCC 499732); [20]): 96%
- Mean % Survival (M. Luteus (ATCC 499732); [21]): 100%
- Mean % Survival (M. Luteus (ATCC 499732); [22]): 100%
- Mean % Survival (M. Luteus (ATCC 499732); 0.2 mM Diazoxide + 200 uM antidote, T20): 100%
- Mean % Survival (M. Luteus (ATCC 499732); [17]): 100%
- Mean % Survival (M. Luteus (ATCC 499732); [18]): 100%
- Mean % Survival [5, 15]: 87%
- Mean % Survival ([5]; substance alone 5 uM): 97%

Compound: NCCCNCCCCNCCCN [Spermine]
- Mean % Survival (S. aureus (ATCC 29213) [7]; [23]): 71%
- Mean % Survival (S. aureus (ATCC 29213) [7]; substance alone 5 uM): 99%
- Mean % Survival (E. coli (ATCC 35150)): 100% and 96% and 60%

Compound: CN(N=O)C(=O)N[C@H]1C(O)O[C@H](CO)[C@@H](O)[C@@H]1O (stereo partly drawn) [Streptozotocin, N-(methylnitrosocarbamoyl)-Dglucosamine, reference compound]
- Mean % Survival ([5]; substance alone 100 uM): 57%

Compound: CN1CCCN(C)CCN(C)CCCN(C)CC1 [cyclam-methylated, 1,4,8,11-tetraaza-1,4,8,11-tetramethylcyclotetradecane]
- pKa ([6]; read-out: pKa(1)): 9.7
- pKa ([6]; read-out: pKa(2)): 9.3
- pKa ([6]; read-out: pKa(3)): 3.1
- pKa ([6]; read-out: pKa(4)): 2.6

Compound: (2-piperidylethyl)-{3-[(2-piperidylethyl)amino]propyl}amine [2,3,2-piperidine]
- pKa(1) [6]: 9.9
- pKa(2) [6]: 9.3
- pKa(3) [6]: 6.4
- pKa(4) [6]: 3.6
- Mean % Survival (M. Luteus (ATCC 499732); [19]): 81%
- Mean % Survival (M. Luteus (ATCC 499732); [21]): 81%
- Mean % Survival (M. Luteus (ATCC 499732); [22]): 41%
- Mean % Survival (M. Luteus (ATCC 499732); 0.2 mM Diazoxide + 5 uM antidote, T20): 100%
- Mean % Survival (M. Luteus (ATCC 499732); [24]): 100%
- Mean % Survival (M. Luteus (ATCC 499732); 0.2 mM Diazoxide + 10 uM antidote, T20): 100%
- Mean % Survival (M. Luteus (ATCC 499732); [25]): 100%
- Mean % Survival (M. Luteus (ATCC 499732); 0.2 mM Diazoxide + 20 uM antidote, T20): 100%
- Mean % Survival (M. Luteus (ATCC 499732); 0.2 mM Diazoxide + 20 uM antidote, T60): 100%
- Mean % Survival (M. Luteus (ATCC 499732); [9]): 100%
- Mean % Survival (M. Luteus (ATCC 499732); substance alone 50 uM, T20 (20 minutes)): 100%
- Mean % Survival (M. Luteus (ATCC 499732); substance alone 50 uM, T60 (60 minutes)): 100%
- Mean % Survival (S. aureus (ATCC 29213) [3]; 0.25 mM MPP^+ + 1uM antidote): 54%
- Mean % Survival (S. aureus (ATCC 29213) [3]; 0.25 mM MPP^+ + 2uM antidote): 54%
- Mean % Survival (S. aureus (ATCC 29213) [3]; 0.25 mM MPP^+ + 5uM antidote): 69%
- Mean % Survival (S. aureus (ATCC 29213) [3]; 0.25 mM MPP^+ + 7uM antidote): 100%
- Mean % Survival (S. aureus (ATCC 29213) [3]; substance alone 7.5 uM): 100%
- Mean % Survival (S. aureus (ATCC 29213) [7]; 0.15 mM Diazoxide + 2.5 uM antidote): 100%
- Mean % Survival (S. aureus (ATCC 29213) [7]; [23]): 91%
- Mean % Survival (S. aureus (ATCC 29213) [7]; 0.15 mM Diazoxide + 10 uM antidote): 92%
- Mean % Survival (S. aureus (ATCC 29213) [7]; substance alone 10 uM): 100%
- Mean % Survival [4, 13]: 100%
- Mean % Survival [4, 14]: 100%
- Mean % Survival ([4]; 100 uM Rotenone + 20 uM antidote): 100%
- Mean % Survival ([4]; 100 uM Rotenone + 50 uM antidote): 100%
- Mean % Survival ([4]; substance alone 50 uM): 100%
- Mean % Survival ([5]; 100 uM Streptozotocin + 2.5 uM antidote): 70%
- Mean % Survival [5, 15]: 100%
- Mean % Survival ([5]; 100 uM Streptozotocin + 20 uM antidote): 100%
- Mean % Survival ([5]; substance alone 20 uM): 100%

Compound: Vanadyl (1,4,8,11-tetraaza-1,4,8,11-tetrabicyclo[3.3.1]non-3-ylcyclotetradecane)(Cl)2 [Vanadium Cyclam Adamantane]
- Mean % Survival (M. Luteus (ATCC 499732); [20]): 100%
- Mean % Survival (M. Luteus (ATCC 499732); [24]): 100%
- Mean % Survival (M. Luteus (ATCC 499732); [25]): 100%
- Mean % Survival (M. Luteus (ATCC 499732); 0.2 mM Diazoxide + 50 uM antidote, T60): 100%
- Mean % Survival (M. Luteus (ATCC 499732); [16]): 100%
- Mean % Survival (M. Luteus (ATCC 499732); [17]): 100%
- Mean % Survival (M. Luteus (ATCC 499732); [18]): 100%

Compound: [2-(bicyclo[3.3.1]non-3-ylamino)ethyl](3-{2-(bicyclo[3.3.1]non-3-ylamino)ethyl]amino}propyl)amine [2,3,2-tetramine adamantane]
- Mean % Survival ([2]; 2 mM Alloxan + 1 uM antidote): 51%
- Mean % Survival ([2]; 2 mM Alloxan + 100 uM antidote): 69%
- Mean % Survival ([2]; substance alone 100 uM): 100%
